Some results are limits rather than exact numbers.

Data on 26 compounds can be found in patent US8912188B2, “Substituted quinoxaline carboxylic acids for the inhibition of PASK” (BioEnergenix, LLC, priority 2011, dated 2014).

One series has as its target T1, PASK (UniProt #Q96RG2; human recombinant N-terminal GST tagged construct, residues 879-1323) (Homo sapiens, UniProt Q96RG2).
T1 construct: human recombinant N-terminal GST tagged construct, residues 879-1323; GST (N); host or cells: insect cells
Briefly: PASK ATP Radiochemical Assay. The series is classed as biochemical. The conditions noted are these: 33P-ATP, Myelin Basic Protein substrate, 120 min at room temperature, read-out: IC50 Kinase Domain. The protocol: Biochemical Assay for hPASK Activity
PASK ATP Radiochemical Assay
Test compounds in DMSO are then added and the mixture, followed by delivery of ^33P-ATP (specific activity 0.01 μCi/μl final) to initiate the reaction. […] The entire reaction mixture is washed through onto a P81 Phosphocellulose paper and washed three times for 10 minutes in 75 mM phosphoric acid and once in methanol prior to drying and scintillation counting.

For a further series, the target named is T2, PASK (Invitrogen) (Homo sapiens, UniProt Q96RG2).
T2 construct: IC50 Kinase Domain; purchased Invitrogen
T2 sequence (Q96RG2 999-1251 limits assumed): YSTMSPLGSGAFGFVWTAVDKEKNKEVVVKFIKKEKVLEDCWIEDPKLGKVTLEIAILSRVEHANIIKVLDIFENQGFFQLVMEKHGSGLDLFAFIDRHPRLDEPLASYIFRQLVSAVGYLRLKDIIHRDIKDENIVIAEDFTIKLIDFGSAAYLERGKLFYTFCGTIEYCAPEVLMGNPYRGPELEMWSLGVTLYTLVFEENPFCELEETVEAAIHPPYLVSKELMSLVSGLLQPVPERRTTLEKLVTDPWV
Description: PAS Kinase FRET Assay. In kind it is biochemical. The conditions noted are these: PAS kinase TR-FRET assay (665 nm/615 nm), 2 hours at 25° C.; read-out: IC50 Kinase Domain.

The nature of series [1]: In vivo pharmacokinetics in the Sprague Dawley rat. The conditions noted are these: for bioavailability / half-life: blood; for bioavailability: po, 10 mg/kg; for bioavailability / half-life / volume of distribution: summary of Table 3; for t1/2 (half-life): intravenous 3 mg/kg (1 mg/kg for Example 105), oral 10 mg/kg; for Cl (clearance) / Vss (volume of distribution): intravenous via tail vein, 3 mg/kg (1 mg/kg for Example 105); for Tmax (time to maximum blood concentration after an oral dose): oral gavage 10 mg/kg; for F (oral bioavailability): oral gavage 10 mg/kg vs intravenous 3 mg/kg (1 mg/kg for Example 105). Here is the method:
Pharmacokinetics of a PASK Inhibitor
The test compounds were formulated in polyethylene glycol and beta cyclodextrin in water for administration at 1 mg/kg for Example 105, and at 3 mg/kg for Example 14, 15, and 18 for intravenous administration via the tail vein and 10 mg/kg for oral administration by gavage. Blood samples were collected at 0.083, 0.25, 0.5, 1, 2, 4, 6, 8, and 24 hours and the samples were analyzed for test compounds content using LC/MS/MS. The data was submitted to pharmacokinetic analysis using WinNonLin software and the observed and calculated pharmacokinetic parameters are shown in Table 3 for each compound.

T1 sequence (Q96RG2 879-1323, stated change not applied): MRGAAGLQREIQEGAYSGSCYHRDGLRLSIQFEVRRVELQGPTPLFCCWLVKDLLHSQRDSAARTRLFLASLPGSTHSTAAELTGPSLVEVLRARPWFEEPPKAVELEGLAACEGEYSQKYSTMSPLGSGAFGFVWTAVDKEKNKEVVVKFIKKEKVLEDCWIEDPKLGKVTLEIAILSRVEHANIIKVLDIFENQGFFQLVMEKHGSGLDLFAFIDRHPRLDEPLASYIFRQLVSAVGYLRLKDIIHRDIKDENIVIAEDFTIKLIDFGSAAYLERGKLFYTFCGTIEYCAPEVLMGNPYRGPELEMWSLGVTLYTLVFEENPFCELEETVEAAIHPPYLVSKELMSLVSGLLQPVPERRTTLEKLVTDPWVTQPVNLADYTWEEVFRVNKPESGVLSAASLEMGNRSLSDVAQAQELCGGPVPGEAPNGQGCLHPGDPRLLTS

In the case of `CN(c1nc2cc(C(=O)O)ccc2nc1-c1cc2ccccc2o1)C1CC1` [Example 15, 2-(Benzofuran-2-yl)-3-(cyclopropyl(methyl)amino)quinoxaline-6-carboxylic acid], the IC50 on PASK was under 10 µM. Further, the IC50 at PASK (Invitrogen) is under 10 µM. Besides, in series [1], the bioavailability is at least 63%, the half-life was at least 3 h, the “t1/2 (half-life)” value came out at 3.39 h and the “Cl (clearance)” value was 1.4 mL/min/kg. In series [1], the “Vss (volume of distribution)” value was 0.347 L/kg, the “Tmax (time to maximum blood concentration after an oral dose)” value was determined as 6 h, the “F (oral bioavailability)” value is 79% and the volume of distribution entry is “low”.
As for `C[C@H]1COCCN1c1nc2cc(C(=O)O)ccc2nc1-c1ccc(F)cc1` [Example 105, (S)-2-(4-Fluorophenyl)-3-(3-methylmorpholino)quinoxaline-6-carboxylic acid], the IC50 on PASK was under 10 µM. The IC50 at PASK (Invitrogen) is under 10 µM. Moreover, in series [1], the bioavailability was over 74%, the half-life was over 7 h, the “t1/2 (half-life)” value worked out at 7.72 h and the “Cl (clearance)” value came to 0.712 mL/min/kg. In series [1], the “Vss (volume of distribution)” value stood at 0.407 L/kg, the “Tmax (time to maximum blood concentration after an oral dose)” value amounted to 1 h, the “F (oral bioavailability)” value is recorded as 74.8% and the volume of distribution entry is recorded as “low”.
Regarding `CC(C)N(C)c1nc2cc(C(=O)O)ccc2nc1-c1ccc2c(c1)CCCO2` [Example 21, 2-(Chroman-6-yl)-3-(isopropyl(methyl)amino)quinoxaline-6-carboxylic acid], the IC50 on PASK and at PASK (Invitrogen) was under 10 µM each time.
As to `CN(c1nc2cc(C(=O)O)ccc2nc1-c1ccc2[nH]ccc2c1)C1CC1` [Example 64, 3-[Cyclopropyl(methyl)amino]-2-(1H-indol-5-yl)quinoxaline-6-carboxylic acid], the IC50 at PASK and on PASK (Invitrogen) was under 10 µM in each case.
With `COC[C@H]1CCCN1c1nc2cc(C(=O)O)ccc2nc1-c1cc2cc(F)ccc2o1` [Example 68, 2-(5-Fluoro-1-benzofuran-2-yl)-3-[(2R)-2-(methoxymethyl)pyrrolidin-1-yl]quinoxaline-6-carboxylic acid], the IC50 at PASK and on PASK (Invitrogen) was under 10 µM throughout.
For the compound `C[C@H]1CCCN1c1nc2cc(C(=O)O)ccc2nc1-c1ccc(F)c(F)c1` [Example 148, (S)-2-(3,4-Difluorophenyl)-3-(2-methylpyrrolidin-1-yl)quinoxaline-6-carboxylic acid], the IC50 at PASK and on PASK (Invitrogen) was under 10 µM each time.
For the compound `Cc1cc2cc(-c3nc4ccc(C(=O)O)cc4nc3N(C)C(C)C)ccc2[nH]1` [Example 76, 3-[Methyl(propan-2-yl)amino]-2-(2-methyl-M-indol-5-yl)quinoxaline-6-carboxylic acid], the IC50 at PASK and on PASK (Invitrogen) was under 10 µM each time.
Take `CC[C@H](C)N(C)c1nc2cc(C(=O)O)ccc2nc1-c1ccc(F)cc1` [Example 104, (S)-3-(sec-Butyl(methyl)amino)-2-(4-fluorophenyl)quinoxaline-6-carboxylic acid]: the IC50 at PASK and at PASK (Invitrogen) was under 10 µM in each case.
Regarding `O=C(O)c1ccc2nc(-c3ccc4c(c3)OC(F)(F)O4)c(N3CCCCCC3)nc2c1` [Example 51, 3-(Azepan-1-yl)-2-(2,2-difluoro-2H-1,3-benzodioxol-5-yl)quinoxaline-6-carboxylic acid], the IC50 at PASK and at PASK (Invitrogen) was under 10 µM each time.
`O=C(O)c1ccc2nc(-c3ccc(F)cc3)c(N3CCCC[C@@H]3C(F)(F)F)nc2c1` [Example 106, 2-(4-Fluorophenyl)-3-[(2R)-2-(trifluoromethyl)piperidin-1-yl]quinoxaline-6-carboxylic acid]: the IC50 on PASK and at PASK (Invitrogen) was under 10 µM each time.
Consider `CC(C)N(C)c1nc2cc(C(=O)O)ccc2nc1-c1cc[nH]c1` [Example 81, 3-[Methyl(propan-2-yl)amino]-2-(1H-pyrrol-3-yl)quinoxaline-6-carboxylic acid], for which the IC50 at PASK and on PASK (Invitrogen) was under 10 µM throughout.
In the case of `CC(C)N(C)c1nc2cc(C(=O)O)ccc2nc1-n1cnc2ccccc21` [Example 63, 2-(1H-Benzo[d]imidazol-1-yl)-3-(isopropyl(methyl)amino)quinoxaline-6-carboxylic acid], the IC50 on PASK and at PASK (Invitrogen) was under 10 µM each time.
As for `CC(C)N(C)c1nc2cc(C(=O)O)ccc2nc1-c1ccc(F)cc1F` [Example 147, 2-(2,4-Difluorophenyl)-3-[methyl(propan-2-yl)amino]quinoxaline-6-carboxylic acid], the IC50 at PASK and on PASK (Invitrogen) was under 10 µM each time.
`Cc1cc2cc(-c3nc4ccc(C(=O)O)cc4nc3N3CCC[C@@H]3C)ccc2[nH]1` [Example 75, 2-(2-Methyl-1H-indol-5-yl)-3-[(2S)-2-methylpyrrolidin-1-yl]quinoxaline-6-carboxylic acid]: the IC50 at PASK and at PASK (Invitrogen) was under 10 µM each time.
For the compound `CN(c1nc2cc(C(=O)O)ccc2nc1-c1ccc(F)cc1)C1CCCCC1` [Example 108, 3-(Cyclohexyl(methyl)amino)-2-(4-fluorophenyl)quinoxaline-6-carboxylic acid], the IC50 on PASK and on PASK (Invitrogen) was under 10 µM throughout.
As for `CCN(c1nc2cc(C(=O)O)ccc2nc1-c1ccc(F)cc1)C1CCCCC1` [Example 112, 3-[Cyclohexyl(ethyl)amino]-2-(4-fluorophenyl)quinoxaline-6-carboxylic acid], the IC50 at PASK and on PASK (Invitrogen) was under 10 µM each time.
As to `CN(c1nc2cc(C(=O)O)ccc2nc1-c1ccc(F)cc1)C(C)(C)C` [Example 107, 3-(tert-Butyl(methyl)amino)-2-(4-fluorophenyl)quinoxaline-6-carboxylic acid], the IC50 on PASK and at PASK (Invitrogen) was under 10 µM each time.
Consider `Cc1cc2cc(-c3nc4ccc(C(=O)O)cc4nc3N(C)C3CC3)ccc2[nH]1` [Example 89, 3-[Cyclopropyl(methyl)amino]-2-(2-methyl-1H-indol-5-yl)quinoxaline-6-carboxylic acid], for which the concentration for half-maximal inhibition (IC50) on PASK and at PASK (Invitrogen) was under 10 µM each time.
In the case of `C[C@H]1COCCN1c1nc2cc(C(=O)O)ccc2nc1-c1ccc2[nH]ccc2c1` [Example 66, (S)-2-(1H-Indol-5-yl)-3-(3-methylmorpholino)quinoxaline-6-carboxylic acid], the half-maximal inhibitory concentration (IC50) at PASK and at PASK (Invitrogen) was under 10 µM throughout.
For the compound `O=C(O)c1ccc2nc(-c3cc4ccc(F)cc4o3)c(N3CCCCCC3)nc2c1` [Example 48, 3-(Azepan-1-yl)-2-(6-fluoro-1-benzofuran-2-yl)quinoxaline-6-carboxylic acid], the IC50 at PASK and on PASK (Invitrogen) was under 10 µM in each case.
For `CC[C@H](C)N(C)c1nc2cc(C(=O)O)ccc2nc1-c1cc2cc(F)ccc2o1` [Example 69, (S)-3-(sec-Butyl(methyl)amino)-2-(5-fluorobenzofuran-2-yl)quinoxaline-6-carboxylic acid], the IC50 on PASK and at PASK (Invitrogen) was under 10 µM throughout.
For `CC(=O)Nc1ccc(-c2nc3ccc(C(=O)O)cc3nc2N(C)C(C)C)cc1` [Example 149, 2-(4-Acetamidophenyl)-3-[methyl(propan-2-yl)amino]quinoxaline-6-carboxylic acid], the IC50 at PASK and on PASK (Invitrogen) was under 10 µM in each case.
On to `CC(C)N(C)c1nc2cc(C(=O)O)ccc2nc1-c1ccc(-c2ccccc2)o1` [Example 77, 3-[Methyl(propan-2-yl)amino]-2-(5-phenylfuran-2-yl)quinoxaline-6-carboxylic acid], for which the IC50 at PASK and at PASK (Invitrogen) was under 10 µM each time.
For `C[C@H]1CCCCN1c1nc2cc(C(=O)O)ccc2nc1-c1ccc2[nH]ccc2c1` [Example 73, (S)-2-(1H-Indol-5-yl)-3-(2-methylpiperidin-1-yl)quinoxaline-6-carboxylic acid], the IC50 at PASK and on PASK (Invitrogen) was under 10 µM in each case.
Regarding `CN(c1nc2cc(C(=O)O)ccc2nc1-c1cc2cc(F)ccc2o1)C1CC1` [Example 61, 3-[Cyclopropyl(methyl)amino]-2-(5-fluoro-1-benzofuran-2-yl)quinoxaline-6-carboxylic acid], the IC50 at PASK and on PASK (Invitrogen) was under 10 µM each time.
Consider `C[C@H]1CCCN1c1nc2cc(C(=O)O)ccc2nc1-c1ccc(F)cc1F` [Example 115, (S)-2-(2,4-Difluorophenyl)-3-(2-methylpyrrolidin-1-yl)quinoxaline-6-carboxylic acid], for which the IC50 on PASK and at PASK (Invitrogen) was under 10 µM throughout.
